Measured values as given in PubChem BioAssay AID248 (DTP/NCI, 2004).
Several values for one entry are separate records, joined by “and”; a condition that tells them apart may be missing. Equal entries are not always repeated. Inconclusive results and toxic doses are left out. Rule as the data show it: active = T/C of 150% or more; inactive = T/C below 125%.

System: L1210 leukemia ip in BDF1 mice, survival T/C
Experiment: NCI In Vivo Anticancer Drug Screen. Data for tumor model L1210 Leukemia (intraperitoneal) in B6D2F1 (BDF1) mice
Conditions: endpoint: mean survival time, higher = longer survival
Summary of the method: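 Ratio derived from survival: compound-dosed mice over vehicle-dosed mice, all bearing a transplantable tumor.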

[1] = dose: 100.0 mg/kg/injection, schedule: Q01DX009 (ip), vehicle: saline
[2] = dose: 100.0 mg/kg/injection, schedule: Q04DX003 (ip), vehicle: saline
[3] = dose: 200.0 mg/kg/injection, schedule: Q01DX009 (ip), vehicle: saline
[4] = dose: 200.0 mg/kg/injection, schedule: Q04DX003 (ip), vehicle: saline
[5] = dose: 100.0 mg/kg/injection, schedule: Q01DX001 (ip), vehicle: saline
[6] = dose: 200.0 mg/kg/injection, schedule: Q01DX001 (ip), vehicle: saline
[7] = dose: 100.0 mg/kg/injection, schedule: Q04DX003 (ip), vehicle: Klucel (hydroxypropylcellulose) (HPC)
[8] = dose: 200.0 mg/kg/injection, schedule: Q04DX003 (ip), vehicle: Klucel (hydroxypropylcellulose) (HPC)
[9] = dose: 400.0 mg/kg/injection, schedule: Q04DX003 (ip), vehicle: Klucel (hydroxypropylcellulose) (HPC)
[10] = dose: 50.0 mg/kg/injection, schedule: Q01DX001 (ip), vehicle: carboxymethylcellulose (CMC)
[11] = dose: 100.0 mg/kg/injection, schedule: Q01DX009 (ip), vehicle: Klucel (hydroxypropylcellulose) (HPC)
[12] = dose: 200.0 mg/kg/injection, schedule: Q01DX009 (ip), vehicle: Klucel (hydroxypropylcellulose) (HPC)
[13] = dose: 400.0 mg/kg/injection, schedule: Q01DX009 (ip), vehicle: saline

Measured: T/C

Cc1ccc(S(=O)(=O)OCC(CO)(CO)[N+](=O)[O-])cc1
inactive: dose: 50.0 mg/kg/injection, schedule: Q01DX009 (ip), vehicle: saline 90 % of control | [1] 92 % of control | [2] 97 % of control | [3] 90 % of control | [4] 88 % of control

NC(=O)c1ncn(C2CCCC2O)c1N (configuration not stated)
inactive: [5] 91 % of control | [6] 102 % of control | dose: 400.0 mg/kg/injection, schedule: Q01DX001 (ip), vehicle: saline 86 % of control

CCCCNC(C)(C)C(SS)c1cccs1 (configuration not stated)
inactive: dose: 100.0 mg/kg/injection, schedule: Q04DX003 (ip), vehicle: saline sonified 96 % of control | dose: 200.0 mg/kg/injection, schedule: Q04DX003 (ip), vehicle: saline sonified 92 % of control | dose: 400.0 mg/kg/injection, schedule: Q04DX003 (ip), vehicle: saline sonified 96 % of control

COc1ccc(-n2c(=O)c(N=Nc3ccccc3OC)c(O)n(-c3ccc(C)cc3)c2=S)cc1
inactive: dose: 50.0 mg/kg/injection, schedule: Q01DX001 (ip), vehicle: Klucel (hydroxypropylcellulose) (HPC) 92 % of control | dose: 100.0 mg/kg/injection, schedule: Q01DX001 (ip), vehicle: Klucel (hydroxypropylcellulose) (HPC) 89 % of control | dose: 200.0 mg/kg/injection, schedule: Q01DX001 (ip), vehicle: Klucel (hydroxypropylcellulose) (HPC) 91 % of control

c1ccc(-c2cc(-c3ccccc3)on2)cc1
inactive: [7] 100 % of control | [8] 98 % of control | [9] 102 % of control

CCCCCCCN(CCCCCCC)C(C)=O
inactive: dose: 100.0 mg/kg/injection, schedule: Q01DX001 (ip), vehicle: other 93 % of control | dose: 200.0 mg/kg/injection, schedule: Q01DX001 (ip), vehicle: other 93 % of control | dose: 400.0 mg/kg/injection, schedule: Q01DX001 (ip), vehicle: other 93 % of control

CCCCCCCCCCCCNC(=O)Nc1ccc(Cl)c(Cl)c1
inactive: [5] 92 % of control | [6] 93 % of control

CCCCSSC(Cl)(Cl)Cl
inactive: dose: 6.25 mg/kg/injection, schedule: Q01DX009 (ip), vehicle: carboxymethylcellulose (CMC) 96 % of control and 104 % of control | dose: 12.5 mg/kg/injection, schedule: Q01DX001 (ip), vehicle: carboxymethylcellulose (CMC) 98 % of control | dose: 12.5 mg/kg/injection, schedule: Q01DX009 (ip), vehicle: carboxymethylcellulose (CMC) 101 % of control and 89 % of control | dose: 12.5 mg/kg/injection, schedule: Q04DX003 (ip), vehicle: carboxymethylcellulose (CMC) 96 % of control | dose: 25.0 mg/kg/injection, schedule: Q01DX001 (ip), vehicle: carboxymethylcellulose (CMC) 95 % of control | dose: 25.0 mg/kg/injection, schedule: Q01DX009 (ip), vehicle: carboxymethylcellulose (CMC) 96 % of control | dose: 25.0 mg/kg/injection, schedule: Q04DX002 (ip), vehicle: carboxymethylcellulose (CMC) 95 % of control and 107 % of control | dose: 25.0 mg/kg/injection, schedule: Q04DX003 (ip), vehicle: carboxymethylcellulose (CMC) 96 % of control | [10] 88 % of control | dose: 50.0 mg/kg/injection, schedule: Q04DX002 (ip), vehicle: carboxymethylcellulose (CMC) 95 % of control and 101 % of control | dose: 50.0 mg/kg/injection, schedule: Q04DX003 (ip), vehicle: carboxymethylcellulose (CMC) 103 % of control and 91 % of control | dose: 200.0 mg/kg/injection, schedule: Q04DX002 (ip), vehicle: carboxymethylcellulose (CMC) 86 % of control

C(=Nc1ccc2c(c1)Cc1ccccc1-2)c1ccccc1
inactive: [11] 104 % of control | [7] 100 % of control | [12] 96 % of control | [8] 95 % of control | [9] 103 % of control

CCCC(O)C(CC)CO (configuration not stated)
inactive: [1] 102 % of control | [3] 100 % of control | [13] 104 % of control

O=C(N/N=C/Cc1ccccc1)C(=O)N/N=C/Cc1ccccc1
inactive: dose: 50.0 mg/kg/injection, schedule: Q01DX009 (ip), vehicle: saline with Tween-80 102 % of control | dose: 100.0 mg/kg/injection, schedule: Q01DX009 (ip), vehicle: saline with Tween-80 91 % of control

CCOP(=O)(Nc1ccc2c(c1)Cc1cc(Cl)ccc1-2)OCC
inactive: [10] 97 % of control | dose: 100.0 mg/kg/injection, schedule: Q01DX001 (ip), vehicle: carboxymethylcellulose (CMC) 105 % of control | dose: 200.0 mg/kg/injection, schedule: Q01DX001 (ip), vehicle: carboxymethylcellulose (CMC) 97 % of control | dose: 400.0 mg/kg/injection, schedule: Q01DX001 (ip), vehicle: carboxymethylcellulose (CMC) 92 % of control

O=[N+]([O-])c1cccc(-[n+]2cc([O-])on2)c1
inactive: dose: 50.0 mg/kg/injection, schedule: Q01DX009 (ip), vehicle: Klucel (hydroxypropylcellulose) (HPC) 94 % of control | [7] 105 % of control | [8] 96 % of control

O=C1c2ccccc2C2(c3ccccc31)C(C(=O)c1ccccc1)C2C(=O)c1ccccc1 (configuration not stated)
inactive: dose: 75.0 mg/kg/injection, schedule: Q01DX001 (ip), vehicle: carboxymethylcellulose (CMC) 94 % of control | dose: 150.0 mg/kg/injection, schedule: Q01DX001 (ip), vehicle: carboxymethylcellulose (CMC) 96 % of control | dose: 300.0 mg/kg/injection, schedule: Q01DX001 (ip), vehicle: carboxymethylcellulose (CMC) 91 % of control

O=[N+]([O-])c1ccc(N/N=C(\Cc2ccccc2)c2ccccc2)c([N+](=O)[O-])c1
inactive: dose: 100.0 mg/kg/injection, schedule: Q04DX003 (ip), vehicle: saline with Tween-80 91 % of control | dose: 200.0 mg/kg/injection, schedule: Q04DX003 (ip), vehicle: saline with Tween-80 91 % of control | dose: 400.0 mg/kg/injection, schedule: Q04DX003 (ip), vehicle: saline with Tween-80 87 % of control

CC(C)CCCC(C)CCCC(C)CCCC(C)CC(=O)O (configuration not stated)
inactive: dose: 100.0 mg/kg/injection, schedule: Q01DX001 (ip), vehicle: olive oil, sesame oil, peanut oil 103 % of control | dose: 200.0 mg/kg/injection, schedule: Q01DX001 (ip), vehicle: olive oil, sesame oil, peanut oil 101 % of control | dose: 400.0 mg/kg/injection, schedule: Q01DX001 (ip), vehicle: olive oil, sesame oil, peanut oil 91 % of control

Cc1cccc(NC(=O)c2cccc(C(=O)Nc3cccc(C)c3C)c2)c1C
inactive: [11] 96 % of control | [7] 88 % of control | [12] 100 % of control | [8] 88 % of control | dose: 400.0 mg/kg/injection, schedule: Q01DX009 (ip), vehicle: Klucel (hydroxypropylcellulose) (HPC) 96 % of control | [9] 93 % of control

CCC(C)(O)C(=O)O (configuration not stated)
inactive: dose: 100.0 mg/kg/injection, schedule: Q04DX002 (ip), vehicle: saline 114 % of control | dose: 200.0 mg/kg/injection, schedule: Q04DX002 (ip), vehicle: saline 114 % of control

CCC1(O)C(=O)OCc2c1cc(C)[nH]c2=O (configuration not stated)
inactive: dose: 6.25 mg/kg/injection, schedule: Q04DX003 (ip), vehicle: Klucel (hydroxypropylcellulose) (HPC) 86 % of control | dose: 12.5 mg/kg/injection, schedule: Q04DX003 (ip), vehicle: Klucel (hydroxypropylcellulose) (HPC) 94 % of control | dose: 25.0 mg/kg/injection, schedule: Q04DX003 (ip), vehicle: Klucel (hydroxypropylcellulose) (HPC) 86 % of control | dose: 50.0 mg/kg/injection, schedule: Q04DX003 (ip), vehicle: Klucel (hydroxypropylcellulose) (HPC) 89 % of control | [7] 91 % of control | [8] 86 % of control

CCCCC[CH2][Sn](=[O])[CH2]CCCCC
inactive: dose: 100.0 mg/kg/injection, schedule: Q01DX001 (ip), vehicle: saline with Tween-80 105 % of control | dose: 200.0 mg/kg/injection, schedule: Q01DX001 (ip), vehicle: saline with Tween-80 100 % of control | dose: 400.0 mg/kg/injection, schedule: Q01DX001 (ip), vehicle: saline with Tween-80 103 % of control

COC(=O)CC1C(=O)C(C)(C(=O)OC)CCC1c1ccc(OC)cc1 (configuration not stated)
inactive: [1] 96 % of control | [2] 100 % of control | [3] 90 % of control | [4] 94 % of control | [13] 93 % of control | dose: 400.0 mg/kg/injection, schedule: Q04DX003 (ip), vehicle: saline 94 % of control

O=C(Nc1ccc(C2=NC3CCCCC3N2)cc1)c1ccc(C(=O)Nc2ccc(C3=NC4CCCCC4N3)cc2)cc1 (configuration not stated)
inactive: dose: 15.0 mg/kg/injection, schedule: Q01DX Z (ip), vehicle: carboxymethylcellulose (CMC) 96 % of control | dose: 30.0 mg/kg/injection, schedule: Q01DX Z (ip), vehicle: carboxymethylcellulose (CMC) 92 % of control | dose: 60.0 mg/kg/injection, schedule: Q01DX Z (ip), vehicle: carboxymethylcellulose (CMC) 96 % of control | dose: 120.0 mg/kg/injection, schedule: Q01DX Z (ip), vehicle: carboxymethylcellulose (CMC) 103 % of control
